Type in all cases: cell-based
For test [1], the target named is T1, GLUT3 (Homo sapiens, UniProt P11169).
T1 construct: GLUT3 ORF cDNA was purchased from Origene Technologies; EGFP (from the pEGFP-N2 vector); host or cells: LNCaP
T1 sequence (P11169 1-496): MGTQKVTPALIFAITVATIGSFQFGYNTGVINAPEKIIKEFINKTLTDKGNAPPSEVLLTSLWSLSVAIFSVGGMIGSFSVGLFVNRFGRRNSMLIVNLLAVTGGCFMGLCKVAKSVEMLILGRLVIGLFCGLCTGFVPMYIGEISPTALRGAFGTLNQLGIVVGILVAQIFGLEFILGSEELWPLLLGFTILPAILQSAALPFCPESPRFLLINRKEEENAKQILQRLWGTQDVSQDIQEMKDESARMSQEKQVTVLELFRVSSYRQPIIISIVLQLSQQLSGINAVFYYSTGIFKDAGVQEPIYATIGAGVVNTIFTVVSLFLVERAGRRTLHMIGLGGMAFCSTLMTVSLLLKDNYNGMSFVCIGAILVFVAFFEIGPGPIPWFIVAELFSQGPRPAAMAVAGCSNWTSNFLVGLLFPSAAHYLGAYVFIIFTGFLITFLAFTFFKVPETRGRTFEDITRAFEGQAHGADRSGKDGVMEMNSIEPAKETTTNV
Nature of the test: [3H]2-DG uptake into LNCaP cells overexpressing GLUT3. The following applies: for inhibition at 5 µM: LNCaP cells transfected with GLUT3, 30 min. The text has this: (§1) As information regarding the expression pattern of individual GLUT members in LNCaP cells was lacking, quantitative real time polymerase chain reaction (qRT-PCR) was used to assess the mRNA levels of the hypoxia-responsive GLUT1 and GLUT3, and three other representative GLUT members, including the class I GLUT2 and GLUT4 and the class II GLUT9. Among these five members, LNCaP cells expressed GLUT1 and, to a much lesser extent, GLUT9, while the mRNA levels of GLUTs2-4 were negligible (FIG. 3B). To examine the isoform specificity of these inhibitors, LNCaP cells were ectopically transfected with plasmids encoding GLUT1, GLUT3, GLUT4, or GLUT9 vis-à-vis the pCMV control vector so that the increased glucose uptake in GLUT-transfected cells relative to pCMV control cells was indicative of the activity of the ectopically expressed GLUT protein.
(§2) Glucose Uptake Assay. LNCaP cells were seeded in six-well plates (3×10^5 cells/well) for 24 h. Cells were washed twice with Krebs-Ringer phosphate buffer (126 mM NaCl, 2.5 mM KCl, 25 mM NaHCO3, 1.2 mM NaH2PO4, 1.2 mM MgCl2, 2.5 mM CaCl2, pH 7.4) and were then treated with individual agents in Krebs-Ringer phosphate buffer. After 1.5 h, glucose uptake was initiated by adding 1 mL Krebs-Ringer buffer containing […] [^3H]2-DG (PerkinElmer Life Science) and […] non-radioactive 2-DG and was terminated by washing with cold PBS. The cells were lysed in […] lysis buffer (10 mM Tris-HCl pH 8.0, 0.1% SDS) and aliquots were taken for measurement of radioactivity using a scintillation counter (Beckman LS6500).
(§3) Plasmid Construction, Transient Transfection and Immunoblotting. The full length GLUT1, GLUT4, and GLUT9 ORF cDNA clones were purchased from Addgene (Cambridge, Mass.) and GLUT3 ORF cDNA was purchased from Origene Technologies (Rockville, Md.). GLUT1, GLUT3, and GLUT9 were subcloned into the HindIII/SalI sites and GLUT4 was subcloned into the EcoRI/SalI sites of pEGFP-N2 expression vector (Clontech, Palo Alto, Calif.). […]

Test [2] has as its target T2, GLUT9 (Homo sapiens, UniProt Q9NRM0).
T2 construct: The full length GLUT1, GLUT4, and GLUT9 ORF cDNA clones were purchased from Addgene; EGFP (from the pEGFP-N2 vector); host or cells: LNCaP
T2 sequence (Q9NRM0 1-540): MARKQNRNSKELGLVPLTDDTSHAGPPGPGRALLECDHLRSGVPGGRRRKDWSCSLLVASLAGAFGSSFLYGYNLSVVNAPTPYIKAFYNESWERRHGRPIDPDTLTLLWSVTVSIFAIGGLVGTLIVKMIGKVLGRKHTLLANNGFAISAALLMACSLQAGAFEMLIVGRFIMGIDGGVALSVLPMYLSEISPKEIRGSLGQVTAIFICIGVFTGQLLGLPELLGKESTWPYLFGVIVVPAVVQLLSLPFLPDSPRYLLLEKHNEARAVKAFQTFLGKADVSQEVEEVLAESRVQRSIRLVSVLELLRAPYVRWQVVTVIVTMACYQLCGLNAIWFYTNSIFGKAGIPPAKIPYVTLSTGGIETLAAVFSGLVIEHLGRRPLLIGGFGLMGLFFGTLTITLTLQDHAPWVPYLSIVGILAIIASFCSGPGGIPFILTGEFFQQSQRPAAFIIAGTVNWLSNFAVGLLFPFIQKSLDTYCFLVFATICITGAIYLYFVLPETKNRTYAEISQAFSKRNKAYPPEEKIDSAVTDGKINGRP
Briefly: [3H]2-DG uptake into LNCaP cells overexpressing GLUT9. As to conditions: for inhibition at 5 µM: LNCaP cells transfected with GLUT9, 30 min.
Source text: as §1, §2, §3

The test system of test [3] is PC-3 cells. Briefly: MTT cell viability assay, PC-3. As to conditions: Homo sapiens, 72 h, 10% FBS. The method, then:
Cell Viability Assay. Cell viability was determined using the 3-(4,5-dimethylthiazol-2-yl)-2,5-diphenyltetrazolium bromide (MTT) assay. Cancer cells were seeded at 5000 cells/well and normal cells were seeded at 8000 cells/well in 96-well plates and incubated in 10% FBS-supplemented medium for 24 h. Cells were then treated with individual agents for 72 h. Drug-containing medium was replaced with medium containing MTT (0.5 mg/mL), followed by incubation at 37° C. for 1 h. After removal of medium, the reduced MTT dye in each well was solubilized in 100 μL of DMSO and absorbance at 570 nm was measured.
Compound 30 was evaluated for antiproliferative activity in panels of different human cancer cells lines, including those of prostate, breast and pancreatic cancers. In all experiments, cells were treated with a range of concentrations of Compound 30 in the presence of 10% fetal bovine serum (FBS). Cell viability was then determined after 72 h of treatment using the 3-(4,5-dimethylthiazol-2-yl)-2,5-diphenyltetrazolium bromide (MTT) assay. […] It is noteworthy that despite this high antiproliferative potency, normal human prostate epithelial cells (PrECs) were resistant to the cytotoxic effect of Compound 30 even at 10 μM.

SMILES strings stand for the structures.

As a reminder, the inhibition is the percentage by which the read-out fell short of the control. On to `CCC(CC)CN1C(=O)S/C(=C\c2ccc(O)c(C(F)(F)F)c2)C1=O` [Compound 5], for which the inhibition at 5 µM in test [1] turned out to be 41%; in test [2], 26%.
For orientation: IC50 means the concentration at which inhibition is half-maximal. As for `CC(CN1C(=O)S/C(=C\c2ccc(O)c(C(F)(F)F)c2)C1=O)(CC(F)(F)F)CC(F)(F)F` [Compound 30, 5-(4-Hydroxy-3-trifluoromethyl-benzylidene)-3-[4,4,4-trifluoro-2-methyl-2-(2,2,2-trifluoro-ethyl)-butyl]-thiazolidine-2,4-dione], the 50% inhibitory concentration (IC50) in test [3] was 1.5 to 1.7 µM; in test [1] (LNCaP cells overexpressing GLUT3, read-out: IC50 for GLUT3-mediated [3H]2-DG uptake) it was at least 5 µM; in test [2] (LNCaP cells overexpressing GLUT9, read-out: IC50 for GLUT9-mediated [3H]2-DG uptake), at least 5 µM. The figures for the inhibition at 5 µM in test [1] and in test [2] were 48% and 34%, respectively.
